# In patent US20250353827A1, “INDOLINE DERIVATIVES AS SEROTONERGIC AGENTS USEFUL FOR THE TREATMENT OF DISORDERS RELATED THERETO” (MINDSET PHARMA INC., priority 2022, published 2025):
# Assays:
# [1] = test system: Male, C57BL/6J mice; test: Mouse head twitch; assay type: in vivo; conditions: for head twitches (mean): counted over 1 hr, male C57BL/6J mice
# Method: The effect of different doses of representative compounds of Formula I were evaluated on head-twitch response (HTR) and other behavioural responses as behavior-based models of psychedelic activity.
# Male, C57BL/6J mice (body weight range 20-30 g) were dosed with the appropriate dose of test article, and following a 1-minute pre-treatment time, placed in individual observation chambers. Animals were visually assessed for the incidence head twitches continuously over a 1 hr period. Head twitches were defined as a rapid jerk of the head which was not elicited by an external tactile stimulus (Come and Pickering, Psychopharmacologia, 1967, 11(1): 65-78). Each head twitch was individually counted by a trained observer, and the data was expressed as the mean±SEM of 6-10 mice per group. Mice were used in a single experiment only.
# The head twitch response of exemplary compound II-1 (1-30 mg/kg SC) was compared to 5-MeO DMT and psilocybin (FIG. 1, Table 6).
# [2] = target: T1, human 5-HT2A (h5-HT2A) receptor (Homo sapiens, UniProt P28223); test: FLIPR assay, human 5-HT2A receptor under agonist mode; assay type: cell-based; conditions: 5-HT2A (FLIPR); for RFU@10 μM: RFU=Fmax−Fmin; for EC50: read-out: EC50
# T1 construct: expressed in transfected cells; cultured under G418 and hygromycin B selection
# Method: I. Assessment of the Effect of Exemplary Compounds of Formula I Targeting on Human 5-HT2A (h5-HT2A) Receptor Under Agonist Mode
# • 1. Cells were cultured in cell culture medium (DMEM containing 10% FBS, 1×penicillin-streptomycin 300 μg/ml G418 and 100 μg/ml hygromycin B) at 37° C., 5% (v/v) CO2. • 2. One day before the assays, the cells were detached using TrypLE™ Express and cells were counted using cell counter. Only cells with >85% viability were used for the assay. • 3. 20000 cells/well were seeded in 30 μl/well culture medium to a 384-well cell plate and cells were incubated overnight at 37° C., 5% (v/v) CO2. • 4. On the assay day, 2×dye solution was prepared following the manual of the FLIPR® Calcium 6 Assay Kit: i. The dye was diluted with assay buffer (20 mM HEPES in 1× HBSS, PH7.4); ii. Probenecid was added to the final concentration of 5 mM; iii. Vortex vigorously for 1-2 minutes. • 5. Medium was removed from cell plate by flicking the cell plate on towel papers. • 6. 10 μl of assay buffer and 10 μl of 2×dye solution was added to each well of the cell plate. • 7. The cell plate was placed on plate shaker, the plate was agitated at 600 rpm for 2 minutes. The plate was incubated at 37° C. for 2 hours followed by additional 15-minute incubation at 25° C. • 8. 3×compound in assay buffer was prepared: a. Reference compounds were diluted to required concentration with DMSO. The compounds were added to a 384-well compound plate; b. Serial dilutions were performed; c. 10 mM test compounds were added to the compound plate, and 3-fold serial dilutions were performed. d. Transfer 60 nl/well of compounds from source plate to a 384-well compound plate (Corning, 3657) by using an Echo; e. Add 20 μl/well assay buffer to the compound plate; f. Mix the plate on plate shaker for 2 mins; • 9. The cell plate, compound plate and tips were put into FLIPR, 10 μl of 3× compound was transferred to the cell plate per well with FLIPR.
# • i. The normalized fluorescence reading (RFU) was calculated as shown below, where Fmax and Fmin stand for maximum and minimum of calcium signal during defined time window: RFU=Fmax−Fmin. • ii. Calculate the percentage activation using following equation:
# [formula] • Iii. Calculate EC50 by fitting % activation against log of compound concentrations with Hill equation using XLfit.
# Exemplary compounds of Formula I were evaluated functionally using FLIPR assay for their effect on h5-HT2A receptor under agonist mode.
# [3] = Liver microsomes stability, rat; conditions: rat; for CLint scaled at 2 μM / Predicted hepatic CL / half-life at 2 μM / microsomal CLint at 2 μM: liver microsomes
# [4] = Liver microsomes stability, mouse; conditions: for CLint scaled at 2 μM / half-life at 2 μM / microsomal CLint at 2 μM: male, microsomes; for CLint scaled at 2 μM / half-life at 2 μM / microsomal CLint at 2 μM / Remaining Percentage: mouse; for Predicted hepatic CL: mouse liver microsomes
# Method: (§1) The objective of this study was to estimate in vitro metabolic stability of representative compounds of the application in pooled human and male mouse liver microsomes. The concentrations of parent compounds in reaction systems were evaluated by LC-MS/MS for estimating the stability in pooled human and male mouse liver microsomes. The in vitro intrinsic clearances of test compounds were determined as well.
# (§2) A master solution in the “Incubation Plate” containing phosphate buffer, ultra-pure H2O, MgCl2 solution and liver microsomes was made according to Table 3. The mixture was pre-warmed at 37° C. water bath for 5 minutes.
# (§3) 40 μL of 10 mM NADPH solution was added to each well. The final concentration of NADPH was 1 mM. The negative control samples were prepared by replacing NADPH with 40 μL of ultra-pure H2O. Samples were prepared in duplicate. Negative controls were prepared in singlet.
# (§4) The reaction was started with the addition of 4 μL of 200 μM test compounds or control compounds to each master solution to get the final concentration of 2 μM. This study was performed in duplicate.
# (§5) Aliquots of 50 μL were taken from the reaction solution at 0, 15, 30, 45 and 60 minutes. The reaction solutions were stopped by the addition of 4 volumes of cold methanol with IS (100 nM alprazolam, 200 nM imipramine, 200 nM labetalol and 2 μM ketoprofen). Samples were centrifuged at 3,220 g for 40 minutes. Aliquot of 90 μL of the supernatant was mixed with 90 μL of ultra-pure H2O and then was used for LC-MS/MS analysis.
# (§6) LC/MS analysis was performed for all samples from this study using a Shimadzu liquid chromatograph separation system equipped with degasser DGU-20A5R; solvent delivery unit LC-30AD; system controller SIL-30AC; column oven CTO-30A; CTC Analytics HTC PAL System. Mass spectrometric analysis was performed using a Triple Quad™ 5500 instrument.
# (§7) All calculations were carried out using Microsoft Excel. Peak areas were determined from extracted ion chromatograms. The slope value, k, was determined by linear regression of the natural logarithm of the remaining percentage of the parent drug vs. incubation time curve.
# (§8) The in vitro half-life (in vitro t1/2) was determined from the slope value:
# (§9) Conversion of the in vitro t1/2 (min) into the in vitro intrinsic clearance (in vitro CLint, in μL/min/mg proteins) was done using the following equation (mean of duplicate determinations): […]
# [5] = Liver microsomes stability, human; conditions: for Predicted hepatic CL: human liver microsomes; for Remaining Percentage / CLint scaled at 2 μM / half-life at 2 μM / microsomal CLint at 2 μM: human; for CLint scaled at 2 μM / half-life at 2 μM / microsomal CLint at 2 μM: pooled liver microsomes
# Method: as §1, §2, §3, §4, §5, §6, §7, §8, §9
# T1 sequence (P28223 whole entry): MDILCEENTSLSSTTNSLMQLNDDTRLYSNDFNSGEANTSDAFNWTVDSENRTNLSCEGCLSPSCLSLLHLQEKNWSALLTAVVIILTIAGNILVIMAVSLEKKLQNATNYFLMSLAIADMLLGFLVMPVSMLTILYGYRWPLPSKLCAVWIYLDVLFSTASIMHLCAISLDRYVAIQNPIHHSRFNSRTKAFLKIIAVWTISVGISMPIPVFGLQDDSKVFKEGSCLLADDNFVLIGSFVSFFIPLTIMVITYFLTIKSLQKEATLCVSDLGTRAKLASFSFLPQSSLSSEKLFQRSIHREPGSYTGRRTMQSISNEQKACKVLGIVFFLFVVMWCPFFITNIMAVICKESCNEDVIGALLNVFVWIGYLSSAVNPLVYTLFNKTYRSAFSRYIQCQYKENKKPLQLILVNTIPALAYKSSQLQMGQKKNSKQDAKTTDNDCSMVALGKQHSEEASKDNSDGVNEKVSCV
SMILES,RFU@10 μM [2],EC50 [2],"Remaining Percentage ([3]; With NADPH, 0 min)","Remaining Percentage ([3]; With NADPH, 30 min)","Remaining Percentage ([3]; With NADPH, 60 min)","Remaining Percentage ([3]; Without NADPH, 0 min)","Remaining Percentage ([3]; Without NADPH, 30 min)","Remaining Percentage ([3]; Without NADPH, 60 min)",CLint scaled at 2 μM [3],Predicted hepatic CL [3],half-life at 2 μM [3],microsomal CLint at 2 μM [3],CLint scaled at 2 μM [4],half-life at 2 μM [4],microsomal CLint at 2 μM [4],Predicted hepatic CL [4],"Remaining Percentage ([4]; With NADPH, 0 min)","Remaining Percentage ([4]; With NADPH, 30 min)","Remaining Percentage ([4]; With NADPH, 60 min)","Remaining Percentage ([4]; Without NADPH, 0 min)",also measured
COc1ccc2[nH]cc(CCN(C)C)c2c1 [5-MeO DMT],,,,,,,,,,,,,,,,,,,,,"head twitches (mean) ([1]; 1 mg/kg SC): 3.0; head twitches (mean) ([1]; 3 mg/kg SC): 4.2; head twitches (mean) ([1]; 10 mg/kg SC): 7.8; head twitches (mean) ([1]; 30 mg/kg SC): 12.3; head twitch response (in words) ([1]; SC, dose range as in the sentence): monotonic increase in head twitches; other behavioural signs (locomotion, core body temperature, 5-HT syndrome) in words ([1]; SC, psilocybin 3 and 10 mg/kg, 5-MeO DMT 3-30 mg/kg, II-1 0.3-30 mg/kg): behavioural signs associated with 5-HT syndrome"
"CN(C)CCC1CNc2ccc(F)cc21 (stereo not drawn) [Compound I-2, 2-(5-Fluoroindolin-3-yl)-N,N-dimethylethan-1-amine]",622,107 nM,100.00%,14.82%,3.66%,100.00%,106.67%,104.17%,198 mL/min/kg,43.15 mL/min/kg,12.6 min,110 µL/min/mg,163 mL/min/kg,37.2 min,37.3 µL/min/mg,57.99 mL/min/kg,100.00%,56.32%,32.69%,100.00%,"Remaining Percentage ([4]; Without NADPH, 30 min): 108.70%; Remaining Percentage ([4]; Without NADPH, 60 min): 97.83%; Predicted hepatic CL [5]: 1.73 mL/min/kg; Remaining Percentage ([5]; With NADPH, 0 min): 100.00%; Remaining Percentage ([5]; With NADPH, 30 min): 111.62%; Remaining Percentage ([5]; With NADPH, 60 min): 95.59%; Remaining Percentage ([5]; Without NADPH, 0 min): 100.00%; Remaining Percentage ([5]; Without NADPH, 30 min): 115.22%; Remaining Percentage ([5]; Without NADPH, 60 min): 108.70%; CLint scaled at 2 μM [5]: 1.89 mL/min/kg; half-life at 2 μM [5]: 921 min; microsomal CLint at 2 μM [5]: 1.5 µL/min/mg"
"COc1ccc2c(c1)C(CCN(C)C)CN2C (stereo not drawn) [Compound I-3, 2-(5-Methoxy-1-methylindolin-3-yl)-N,N-dimethylethan-1-amine]",1014,404 nM,,,,,,,,,,,,,,,,,,,
"[2H]C([2H])([2H])Oc1ccc2c(c1)C(CCN(C)C)CN2 (stereo not drawn) [Compound I-11, 2-(5-(Methoxy-d3)indolin-3-yl)-N,N-dimethylethan-1-amine]",980,19 nM,100.00%,22.43%,6.59%,100.00%,102.53%,85.67%,162 mL/min/kg,41.20 mL/min/kg,15.3 min,90.7 µL/min/mg,334 mL/min/kg,18.2 min,76.3 µL/min/mg,70.89 mL/min/kg,100.00%,31.50%,10.14%,100.00%,"Remaining Percentage ([4]; Without NADPH, 30 min): 94.39%; Remaining Percentage ([4]; Without NADPH, 60 min): 80.37%; Predicted hepatic CL [5]: 12.66 mL/min/kg; Remaining Percentage ([5]; With NADPH, 0 min): 100.00%; Remaining Percentage ([5]; With NADPH, 30 min): 72.72%; Remaining Percentage ([5]; With NADPH, 60 min): 45.89%; Remaining Percentage ([5]; Without NADPH, 0 min): 100.00%; Remaining Percentage ([5]; Without NADPH, 30 min): 97.58%; Remaining Percentage ([5]; Without NADPH, 60 min): 92.20%; CLint scaled at 2 μM [5]: 32.6 mL/min/kg; half-life at 2 μM [5]: 53.4 min; microsomal CLint at 2 μM [5]: 26 µL/min/mg"
